Data taken from patent US12364695B2, “Methods of treating inflammatory disease” (INTRA-CELLULAR THERAPIES, INC., priority 2020, dated 2025).

What was measured:
[1] = test system: leukocytes, neutrophils, and macrophages (M1/M2) at the site of inflammation; assay: Mouse zymosan model of sterile inflammation, flow cytometry of infiltrating cells; assay type: in vivo; conditions: for inflammatory resolution (shift from M1 to M2 macrophages): zymosan injection, FIGS. 1-9
Method: (§1) Zymosan is injected into the pleural cavities of mice in order to induce sterile inflammation. Infiltration of leukocytes, neutrophils, and macrophages are monitored at days 3 and 7 following injection. Detection of various cell types are identified according to the gating strategy outlined in Table 1 below.
In this model, injection of zymosan causes the recruitment of various waves of leukocytes, which are observed and recorded. Exudate volume increases to a maximum over a period of 24 hours, and neutrophils increase within 4 hours and reach a maximum by 48 hours. Lymphocytes of the adaptive immune system enter at a later stage, after three days, which is signaled by macrophages presenting antigens. A resolution phase is well documented in this model and is accompanied by decreased total macrophage number and transition into M2 phenotype.
In the studies, Compounds 1 and 2 were administered to the test subjects, and the effect the compounds had on infiltration of leukocytes, neutrophils, and macrophages was observed.
Similar tests were conducted with Compound 2, the results of which are illustrated in FIGS. 8 and 9. […] An additional test was carried out according to the same method. Mice were injected intraperitoneally with 1 mg Zymosan followed by 10 mg/kg Compound 1. Macrophage levels were recorded at injection, then at 4, 8, 16, 24, 48 and 72 hours post-injection.

MCP-1/CCL2 = assay: Cytokine production in plasma following zymosan sterile insult (FIG. 7); assay type: in vivo, mouse; conditions: at 3 and 7 days, in comparison with control groups
Method: FIG. 7 depicts cytokine production in plasma in test subjects following sterile insult when treated with Compound 1.
as §1

BV2 cells = assay: Microglia chemotaxis assay (Transwell, ADP); assay type: cell-based; conditions: 100 μM ADP, 4 hours, FIG. 10
Method: BV2 cells were added to upper chamber of a 5 μm pore Transwell 96-well plate over a reservoir containing 100 μM ADP and incubated at 37° C. with 5% CO2 for 4 hours. After the incubation cells were harvested with pre-warmed cell detachment solution for 30 minutes in the same incubation conditions. 75 μl of this cell detachment solution was combined with 75 μl of culture medium in a new 96 well plate compatible with a fluorescence reader. Cell number in bottom chamber was determined by adding CyQuant® GR dye and reading in the Envision fluorescence reader at 480 nm EX/520 nm EM.

[2] = test system: Docosahexaenoic Acid Metabolites; assay: Detection of docosahexaenoic acid metabolites, mouse zymosan pleurisy model; assay type: in vivo; conditions: compared with controls
Method: (§2) Zymosan was injected into the pleural cavities of mice in order to induce sterile inflammation by the methods discussed in Example 1. Compound 1 was administered to test subjects to observe the effects on a variety of inflammatory biomarkers. Results were recorded after 4 hours. […] IFNγ, IL-1β, MCP1-β and TNF-α decreased following administration of Compound 1 in all serum and plasma samples.
(§3) Lipids are known to be involved in regulation of a multitude of cellular responses including cell growth and death, and inflammation/infection, via receptor-mediated pathways. Various lipids are involved in both the initiation and resolution of inflammation. Pro-resolving lipid mediators are produced naturally in the body from unsaturated fatty acids, such as arachidonic acid (AA) and docosahexaenoic acid (DHA). Further studies were carried out to identify metabolites of AA and DHA, which are summarized below in Tables 2 and 3.
(§4) As shown above in relation to AA metabolism, 12-HETE and 15-HETE, both intermediate mediators leading to resolution of inflammation, show increased occurrence compared with controls, while pro-inflammatory mediators TXB2, PGE2 and LTB4 all decrease. For the metabolism of DHA, each of 17-HDOHE, RVD5 and 14-HDOHE increase, all of which are related to resolution of inflammation.

[3] = test system: cytokine markers (IFNγ, IL-1β, MCP1-β, TNF-α, IL10); assay: Inflammatory biomarkers in mouse zymosan pleurisy model; assay type: in vivo; conditions: after 4 hours
Method: as §2

[4] = test system: Arachidonic Acid Metabolites; assay: Detection of arachidonic acid metabolites, mouse zymosan pleurisy model; assay type: in vivo; conditions: compared with controls
Method: as §2, §3, §4

CN1C(=O)c2c(nn(Cc3ccc(-c4cccc(F)n4)cc3)c2Nc2ccccc2)N2C1=N[C@@H]1CCC[C@@H]12 [Compound 1]
M1 macrophage levels (CD80+, iNOS+) ([1]; 1 mg Zymosan i.p. then 10 mg/kg, all observed times, FIGS. 11A and 11B): lower
Arg1+ M2 macrophages ([1]; 10 mg/kg, at 4 hours, FIG. 12A): increased
CD206+ M2 macrophages ([1]; 10 mg/kg, relative to control at 2 and 3 days, FIG. 12B): significantly increased
total numbers of CD38+ macrophages ([1]; day 3, FIG. 5A): decreased
number of Egr2+ macrophages ([1]; day 3, all animal groups, FIG. 5B): decreased
MFI for CD38+ on macrophages ([1]; day 3, increase in all groups, FIG. 6A): lowest value
MFI for CD38+ on macrophages ([1]; day 7, all groups): decreased
percentage of neutrophils relative to CD45+ leukocytes ([1]; day 7, all subjects, FIG. 3B): dropped significantly
number of neutrophils ([1]; day 7, compared with disease only and vehicle animals, FIG. 3A): less dramatic decrease
MFI for Egr2+ on macrophages ([1]; days 3 and 7, compared to naïve, all groups): decreased
Egr2+ cell number and percent ([1]; overall trend, day 7): tended to increase
number of CD38+ cells ([1]; overall trend, day 7): tended to decrease
inflammatory resolution (shift from M1 to M2 macrophages) [1]: enhanced inflammatory resolution
inflammatory biomarkers (MCP-1/CCL2) in plasma (MCP-1/CCL2): less inflammatory biomarkers
motility of BV2 cells across the membrane (BV2 cells): marked dampening effect
14-HDOHE (resolution mediator) [2]: Increase
17-HDOHE (intermediate mediator linked to resolution) [2]: Increase
RVD5 (intermediate mediator linked to resolution) [2]: Increase
IFNγ ([3]; serum and plasma): decreased
IL-1β ([3]; serum and plasma): decreased
MCP1-β ([3]; serum and plasma): decreased
TNF-α ([3]; serum and plasma): decreased
IL10 ([3]; serum): decrease
5-HETE (intermediate mediator linked to resolution) [4]: No change
12-HETE (intermediate mediator linked to resolution) [4]: Increase
15-HETE (intermediate mediator linked to resolution) [4]: Increase
LTB4 (pro-inflammatory mediator) [4]: No change
PGE2 (pro-inflammatory mediator) [4]: Decrease
TXB2 (pro-inflammatory mediator) [4]: Decrease

CN1C(=O)c2c(nn(Cc3ccc(-c4ccccn4)cc3)c2Nc2ccccc2)N2C1=N[C@@H]1CCC[C@@H]12 [Compound 2]
CD38+ macrophages ([1]; 3 mg/kg, day 7, FIG. 8): significant drop
Erg2+ macrophages ([1]; 3 mg/kg, day 7, FIG. 9): sharp and significant increase
inflammatory resolution (shift from M1 to M2 macrophages) [1]: enhanced inflammatory resolution
